Several values for one entry are separate records, joined by “and”; a condition that tells them apart may be missing. Equal values may be shown once. Entries after “also recorded” stand apart in the source; their conditions may differ.
Key:
[1] = test system: bone marrow; assay: Bone marrow regeneration after 5FU (or sublethal irradiation) in 60HDA-sympathectomized mice; type: in vivo
Method: (§1) To induce acute peripheral sympathectomy, mice received two i.p. injections of 60HDA (Sigma; 100 mg/kg on day 0; 250 mg/kg on day 2). Three days after the last injection of 60HDA mice were euthanized for analysis, transplanted (see below) or injected with 5-fluorouracil (see below).
(§2) To induce bone marrow ablation and force quiescent HSC to proliferate, 5FU (250 mg/kg; Sigma) was injected i.v. under isoflurane (Phoenix Pharmaceuticals) anesthesia. Mice were allowed to recover and analyzed at the indicated time points.
(§3) To induce neuroprotection from 60HDA, mice were injected with 4-MC (10 μg/kg; i.p.) or GDNF-Fc (5 μg per mice; s.c.) for 5 days, starting the treatment the same day as the first injection of 60HDA.
(§4) Blood was harvested by retro-orbital sampling of mice anesthetized with isoflurane and collected in polypropylene tubes containing ethylenediaminetetraacetic acid (EDTA). Blood parameters were determined with an AcT differential counter (Beckman-Coulter). CFU-C assays were performed as described in He et al., Ann. Rev. Cell. Dev. Biol. 25:377 (2009), incorporated herein by reference. For flow cytometry, red blood cells were lysed thrice for 5 minutes at 4° C. in 0.15 M NH4Cl, cells were washed once in ice-cold PBS and counted in a hemocytometer. To determine Lin^−Sca1^+c-kit^+ or Lin^−Sca1^+c-kit^+ft13^− numbers, 10^6 cells were stained with the Mouse Lineage Panel (BD Biosciences) together with FITC-conjugated anti-Sca-1 antibody (BD Biosciences), PE-Cy7-conjugated anti-c-kit antibody (eBioscience) and PE-conjugated anti-flt3 antibody (eBioscience). Cells were further stained with streptavidin-Cy5 (Jackson Immunotech) and analyzed with a BD LSR11 system (BD Biosciences). Bone marrow was harvested by flushing the bone with 1 mL of ice-cold PBS, red blood cells were lysed once for 5 minutes at 4° C. in 0.15 M NH4Cl, cells were washed once in ice-cold PBS and counted with a hemocytometer. CFU-C and Lin^−Sca1^+c-kit^+ft13^− numbers were determined as above. In some experiments, CD150^+CD48^− cell numbers were determined by staining 5×10^6 cells with PE-anti-CD48 antibody (BD Biosciences) and PE-Cy7-anti-CD150 antibody (Biolegend).

[2] = Survival after lethal irradiation and bone marrow transplantation; type: in vivo
Method: To protect from kidney damage, mice were simultaneously subcutaneously (s.c.) injected with 1 mL of saline solution.
as §1
(§5) Mice were irradiated (1,200 cGy, two split doses, 3 hours apart) in a Cesium Mark 1 irradiator (JL Shepperd & associates). Three hours later, the indicated number of BMNCs was injected retroorbitally in the irradiated recipients under isoflurane (Phoenix Pharmaceuticals) anesthesia. Mice were allowed to recover and analyzed at the indicated time points.
as §3

[3] = test system: TH+ fibers; assay: Immunofluorescence quantification of TH+ sympathetic fibers in bone marrow / calvaria
Method: Bones were collected and fixed for 1 hour in 4% paraformaldehyde (PFA) in PBS (Electron Microscopy Sciences) at 4° C. They were then post-fixed overnight in 1% PFA in PBS at 4° C. and cryoprotected for 24 hours in 30% sucrose. Bones were then included in OCT (Tissue Tek), sectioned (14 μm sections) in a Cryostat, and mounted on CFSA 4× Slides (Leica). TH^+ immunofluorescence staining was performed as previously described in Mendez-Ferrer, et al., Nature 452:442 (2008), incorporated herein by reference. For each mouse analyzed, the number of nerve fibers in 6 fields was quantified and plotted as per mm^2. For whole-mount immunofluorescence, calvaria were harvested by cutting along the temporal lines of the skull and immediately fixed in methanol. Bone tissues were blocked/permeabilized in PBS containing 20% FCS and 0.5% Triton and stained with APC-conjugated anti-PECAM CD31 antibody and TH (Millipore). Signal amplification for TH staining was achieved by using a signal amplification kit (Perkin Elmer). Whole-mount tissues were imaged face-down on an upright Olympus BX61WI microscope. The area between the frontal and parietal bones was identified by moving along the coronal suture and images were obtained from the same area for all mice, along the coronal vein on either side of the central vein. The numbers of individual nerve fibers running alongside blood vessels were quantified and plotted as per 100 μm vessel segment. All images were processed using Slidebook software (Intelligent Imaging Innovations, Inc.).

[4] = Survival after 5FU injection in 60HDA-sympathectomized mice; type: in vivo
Method: as §1, §2, §3

[5] = test system: bone marrow; assay: Bone marrow hematopoietic recovery after transplantation (BMNC, CFU-C, Lin-Sca1+c-kit+flt3- cells); type: in vivo, mice; settings: for hematopoietic recovery in BM after transplantation (progenitors, Lin-Sca1+c-kit+flt3- cells, total BM): about 4 weeks / 30 days post-transplantation, vs saline
Method: as §5, with “points. […]” for “points.”
as §4

[6] = test system: Nestin+ niche cells; assay: HSC niche cell analyses (Nestin+ cells, osteoblasts, endothelial cells, macrophages, α-SMA+ cells); type: in vivo
Excerpt: Since the SNS directs HSC trafficking by acting on Nestin^+ niche cells through the β3 adrenergic receptor, the changes that occurred in the HSC niche after SNS injury and genotoxic insult were investigated. […] The reason for reduced Nestin^+ numbers in SNS-injured mice during BM recovery was then investigated.

[7] = test system: bone marrow; assay: CFU-C homing efficiency to bone marrow; type: in vivo; settings: compared to control mice, 24 hours after irradiation and BMNC injection
[8] = test system: bone marrow; assay: Steady-state bone marrow analysis after cisplatin or 60HDA treatment; type: in vivo, mice; settings: 3 days after last 60HDA injection
Method: To protect from kidney damage, mice were simultaneously subcutaneously (s.c.) injected with 1 mL of saline solution. Four weeks after the last injection of cisplatin, mice were euthanized for analysis, transplanted (see below) or mobilized with granulocyte colony-stimulating factor (G-CSF, see below).
as §1
Blood was harvested by retro-orbital sampling of mice anesthetized with isoflurane and collected in polypropylene tubes containing ethylenediaminetetraacetic acid (EDTA). Blood parameters were determined with an AcT differential counter (Beckman-Coulter). […] For flow cytometry, red blood cells were lysed thrice for 5 minutes at 4° C. in 0.15 M NH4Cl, cells were washed once in ice-cold PBS and counted in a hemocytometer. […] Cells were further stained with streptavidin-Cy5 (Jackson Immunotech) and analyzed with a BD LSR11 system (BD Biosciences). Bone marrow was harvested by flushing the bone with 1 mL of ice-cold PBS, red blood cells were lysed once for 5 minutes at 4° C. in 0.15 M NH4Cl, cells were washed once in ice-cold PBS and counted with a hemocytometer. […]

[9] = Complete blood counts of moribund 6OHDA-treated mice after 5FU; type: in vivo; settings: for CH / CHCM / HDW / HCT / Hgb / MCH / MCHC / RDW: moribund 6OHOA-treated mouse
Method: as §1, §2, §4

[10] = molecular target: T1, β3 adrenergic receptors (Mus musculus, UniProt P25962); assay: β3 adrenergic blockade during 5FU-induced BM regeneration; type: in vivo, mice
T1 construct: β3 adrenergic receptors expressed by niche cells; from tissue; host or cells: live mice (wild-type or Adrb2-/-); receptor expressed by bone marrow niche cells
T1 sequence (P25962 whole entry): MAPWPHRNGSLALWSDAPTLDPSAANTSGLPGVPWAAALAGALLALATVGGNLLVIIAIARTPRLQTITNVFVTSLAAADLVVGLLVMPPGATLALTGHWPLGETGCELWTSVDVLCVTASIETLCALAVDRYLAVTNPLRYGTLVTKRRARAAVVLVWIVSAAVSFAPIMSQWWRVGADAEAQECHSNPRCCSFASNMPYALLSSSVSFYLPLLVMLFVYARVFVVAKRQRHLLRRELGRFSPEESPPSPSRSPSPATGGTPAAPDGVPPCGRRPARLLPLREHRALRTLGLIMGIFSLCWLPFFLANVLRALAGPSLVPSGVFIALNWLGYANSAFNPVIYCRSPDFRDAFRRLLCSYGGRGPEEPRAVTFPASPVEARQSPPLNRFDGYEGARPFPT
Method: as §2
To investigate the role of β2 or β3 adrenergic receptors in bone marrow regeneration, β3 adrenergic signaling was blocked in wild-type or Adrb2^tm1Bkk/J mice by injecting the β3-specific antagonist SR59230A (5 mg/kg, i.p.; Sigma), daily for 3 days.

[11] = 60HDA-lesioned mice plus agent, 12 days after 5FU
[12] = cisplatin-treated mice plus 4-MC
[13] = 60HDA-treated mice, eight days after 5FU
[14] = 10 days after 5FU (250 mg/kg), listed as 6OHOA

## Cc1ccc(O)c(O)c1 [4-MC, 4-methylcatechol]
[1]; 60HDA-lesioned mice plus 4-MC, after 5FU
  HSC recovery by competitive repopulation assays: significant increase in HSC recovery
[1]; [11]
  hematopoietic recovery after 5FU with neuroprotective agent (BM, LSKF cells): increased hematopoietic recovery; also recorded: significantly increased
[1]; sympathectomized mice treated with 4-MC, TrkA restricted to nervous system
  BM recovery after 5FU in Tα1-Cre:TrkANeo/Neo mice: recovery comparable to that of wild-type mice
[2]; cisplatin-treated mice plus agent
  survival after transplantation with neuroprotective agent: no death was observed; also recorded: completely abolished transplant-associated death; also recorded: completely prevented neuropathy-induced death
[3]; [11]
  TH+ / SNS fiber recovery: induced TH^+ fiber recovery; also recorded: significant recovery in the number of BM SNS fibers; also recorded: protects sympathetic fibers
[3]; cisplatin+4-MC compared to cisplatin+saline, p<0.05
  increase in bone marrow TH+ fiber density: 2 fold
[4]; 60HDA-lesioned mice plus agent
  survival after 5FU with neuroprotective agent: completely protected from death; also recorded: completely abolished 5FU-associated cell death
[5]; cisplatin-treated mice plus 4-MC, after transplantation
  HSC frequency and absolute numbers (LTC-IC, competitive repopulation assays): higher frequency and absolute numbers of HSC
[5]; cisplatin-treated mice plus agent, one month after transplantation
  bone marrow regeneration after transplantation with neuroprotective agent (BM cellularity, progenitor counts, LSKF cells): accelerated bone marrow regeneration; also recorded: significantly improves hematopoietic cell counts
[6]; 60HDA mice plus 4-MC
  Nestin+ cell number 12 days after 5FU: restored normal Nestin^+ cell number
  SNS-injury-induced expansion of Nestin+ cells and osteoblasts prior to 5FU: abolished the expansion
[6]; 60HDA mice plus 4-MC, before or after 5FU
  other niche cells (endothelial cells, BM macrophages, perivascular α-SMA cells): did not affect other niche cells
[6]; [12]
  endothelial cells, BM macrophages, perivascular α-SMA+ cells before BMT: without affecting
  expansion in Nestin+ cells and osteoblasts before BMT: ameliorated the expansion

## NCCc1cc(O)c(O)cc1O [60HDA, 6-hydroxydopamine]
[1]; 60HDA-sympathectomized mice, day 12
  hematopoietic recovery after 5FU: significantly impaired hematopoietic recovery
[1]; 60HDA-treated mice, 12 days after irradiation
  BM recovery after sublethal irradiation: Reduced BM recovery
[1]; 60HDA-treated mice, days 4 to 12
  Lin-Sca1+c-kit+flt3- cell expansion after 5FU: blunted
[1]; [13]
  LSK cell proliferation: increased proliferation
  LSK cell viability: reduced viability
[2]; lethally irradiated, transplanted with wild-type BMNC
  mortality after transplantation: significant increase in mortality
[7]
  CFU-C homing efficiency: No differences; also recorded: No defect
[8]
  BM cellularity, CFU-C, Lin-Sca1+c-kit+flt3-, CD48-CD150+ cell numbers, Lin-Sca1+c-kit+ cell cycling: did not alter; also recorded: does not induce significant changes
[4]; 60HDA-sympathectomized vs saline mice
  survival after 5FU: dramatically reduced their survival
[5]
  hematopoietic recovery in BM after transplantation (progenitors, Lin-Sca1+c-kit+flt3- cells, total BM): significant reductions in hematopoietic recovery; also recorded: delayed hematopoietic recovery
[6]; 60HDA mice, 24 hours after 5FU
  Nestin+ cell death (apoptosis): significant increase
[6]; 60HDA- vs saline-treated mice
  endothelial cells, BM monocyte/macrophages, α-SMA+ perivascular cells 12 days after 5FU: failed to detect differences
[6]; 60HDA-sympathectomized mice
  Nestin+ cell numbers 12 days after 5FU: severe deficit
[6]; 60HDA-treated vs saline mice
  endothelial cells, osteoblasts, CD68+ cells, α-SMA+ perivascular cells by immunofluorescence prior to 5FU: did not reveal differences
  number of Nestin+ cells prior to 5FU: significant increase
  osteoblast numbers prior to 5FU: slightly increased
[9]; 60HDA-sympathectomized mice
  cause of reduced survival after 5FU: BM failure
[9]; 8 days after 5FU (250 mg/kg)
  CH: 13.3 pg and 12.8 pg and 12.9 pg
  CHCM: 32.8 g·dL and 31.8 g·dL and 31.2 g·dL
  HDW: 2.34 g·dL and 1.78 g·dL and 1.74 g·dL
[9]; 9 days after 5FU (250 mg/kg)
  CH: 13.5 pg
  CHCM: 33.7 g·dL and 33 g·dL
  HCT: 11
  HDW: 2.27 g·dL and 2.34 g·dL
  Hgb: 3 g·dL
  MCH: 9.7 pg and 9.1 pg
  MCHC: 24.3 g·dL and 22.3 g·dL
  RDW: 12.5 and 12.6
[9]; [14]
  CH: 12.8 pg and 12.9 pg
  CHCM: 29.3 g·dL and 30.5 g·dL
  HCT: 13 and 10
  HDW: 1.67 g·dL and 2.03 g·dL
  Hgb: 4 g·dL and 6 g·dL
  MCH: 12.8 pg and 18.9 pg
  MCHC: 29.3 g·dL and 44.4 g·dL
  RDW: 12.2 and 13.2
[9]; 11 days after 5FU (250 mg/kg)
  CH: 13.2 pg
  CHCM: 30.7 g·dL
  HCT: 14
  HDW: 1.95 g·dL
  Hgb: 3 g·dL
  MCH: 10.5 pg
  MCHC: 24.3 g·dL
  RDW: 11.3
[9]; 12 days after 5FU (250 mg/kg)
  CH: 12.6 pg
  CHCM: 31.1 g·dL
  HCT: 15
  HDW: 2.31 g·dL
  Hgb: 3 g·dL
  MCH: 9.3 pg
  MCHC: 22.9 g·dL
  RDW: 13.5

## CCc1ccccc1OC[C@@H](O)CN[C@H]1CCCc2ccccc21 [SR59230A]
[10]; Adrb2-/- mice plus SR59230A
  hematopoietic regeneration after 5FU with both β2 and β3 receptors disrupted: most severe impairment; also recorded: severe impairment in hematopoietic regeneration
[10]; wild-type mice, SR59230A alone
  hematopoietic recovery after 5FU under β3 blockade: sufficient to impair hematopoietic regeneration; also recorded: partially compromised hematopoietic recovery

## N.N.O=C([O-])C1(C(=O)[O-])CCC1.[Pt+2] [carboplatin]
[5]
  hematopoietic recovery in BM after transplantation (progenitors, Lin-Sca1+c-kit+flt3- cells, total BM): not

## CC[C@]1(O)C[C@H]2CN(CCc3c([nH]c4ccccc34)[C@@](C(=O)OC)(c3cc4c(cc3OC)N(C=O)[C@H]3[C@@](O)(C(=O)OC)[C@H](OC(C)=O)[C@]5(CC)C=CCN6CC[C@]43[C@@H]65)C2)C1 [vincristine]
[5]; mouse, in vivo
  BM recovery 3 months after transplantation: not yet completely recovered
  HSC content by competitive repopulation assays: reduced HSC content

Source: patent US20130230580A1, “Administration of SNS Neuroprotective Agents to Promote Hematopoietic Regeneration” (priority 2010, published 2013)
